Assay results published in the supplement of paper PMC11061612.

Legend:
[1] = tested on: SUP-B15 (B-Lymphoblastic Leukemia); test: combination Emax (second highest fraction inhibited in the dose matrix, 72 h); higher = more inhibition; extreme values may be limits of the assay
Summary of the method: (§1)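 Bliss excess equals the observed combination effect minus the expected value EA + EB − EA·EB, where EA and EB are the effects of each agent alone. Combination Emax is the second-highest inhibition within the matrix. Inhibition was scaled from CellTiter-Glo 2.0 luminescence, with 0 set by vehicle wells and 1 by blank wells, after 72 hours of two-drug dosing of cells plated in 1536-well plates.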

[2] = tested on: NCI-H661 (Non-Small Cell Lung Carcinoma); test: as above
Summary of the method: as §1

[3] = tested on: 8505C (Thyroid Gland Carcinoma); test: as above
Summary of the method: as §1

[4] = tested on: SK-GT-4 (Esophageal Adenocarcinoma); test: as above
Summary of the method: as §1

[5] = tested on: ST486 (Burkitt's Lymphoma); test: as above
Summary of the method: as §1

[6] = tested on: NCI-H520 (Squamous Cell Lung Carcinoma); test: as above
Summary of the method: as §1

[7] = tested on: KP-3 (Pancreatic Carcinoma); test: as above
Summary of the method: as §1

[8] = tested on: T-T (Esophageal Squamous Cell Carcinoma); test: as above
Summary of the method: as §1

[9] = tested on: PC-3 (Prostate Carcinoma); test: as above
Summary of the method: as §1

[10] = tested on: IM-95 (Gastric Carcinoma); test: as above
Summary of the method: as §1

[11] = tested on: SU-DHL-5 (B-Cell Non-Hodgkin's Lymphoma); test: as above
Summary of the method: as §1

[12] = tested on: HCC1187 (Breast Carcinoma); test: as above
Summary of the method: as §1

[13] = tested on: DMS-114 (Small Cell Lung Carcinoma); test: as above
Summary of the method: as §1

[14] = tested on: ESO51 (Esophageal Adenocarcinoma); test: as above
Summary of the method: as §1

[15] = tested on: CHSA8926 (Chondrosarcoma); test: as above
Summary of the method: as §1

[16] = tested on: SNU-398 (Hepatocellular Carcinoma); test: as above
Summary of the method: as §1

[17] = tested on: KY821 (Acute Myeloid Leukemia); test: as above
Summary of the method: as §1

[18] = tested on: COR-L279 (Small Cell Lung Carcinoma); test: as above
Summary of the method: as §1

[19] = tested on: MN-60 (B-Lymphoblastic Leukemia); test: as above
Summary of the method: as §1

[20] = tested on: SK-GT-4 (Esophageal Adenocarcinoma); test: Bliss excess, mean over the matrix (fraction); higher = more synergy
Summary of the method: as §1

| Structure (SMILES) | combination Emax [1] | combination Emax [2] | combination Emax [3] | combination Emax [4] | combination Emax [5] | combination Emax [6] | combination Emax [7] | combination Emax [8] | combination Emax [9] | combination Emax [10] | combination Emax [11] | combination Emax [12] | combination Emax [13] | combination Emax [14] | combination Emax [15] | combination Emax [16] | combination Emax [17] | combination Emax [18] | combination Emax [19] | Bliss excess [20] |
| --- | --- | --- | --- | --- | --- | --- | --- | --- | --- | --- | --- | --- | --- | --- | --- | --- | --- | --- | --- | --- |
| CN(CCO)CC[C@H](CSc1ccccc1)Nc1ccc(S(=O)(=O)NC(=O)c2ccc(N3CCC([C@@H](O)c4ccccc4-c4ccc(Cl)cc4)CC3)cc2)cc1S(=O)(=O)C(F)(F)F [AZD4320] + Cc1cc2ncnn2cc1Nc1ncc2c(n1)n(C1CCOCC1)c(=O)n2C [AZD7648] (first compound max 1 µM, 7x7, partner max 10 µM) | 1 | 0.0745 | 0.484 | 0.321 | 0.959 | 0.541 | 0.0376 | 0.106 | 0.213 | 0.6 | 0.797 | 0.114 | 0.321 | 0.149 | 0.688 | 0.261 | 1 | 0.976 | 0.226 | -0.0413 |
| CN(C)CCCOc1ccc(-c2ccc3ncc4c(c3c2)n(C2CCOCC2)c(=O)n4C)cn1 [AZD0156] + CCN(CCO)CCCOc1ccc2c(Nc3cc(CC(=O)Nc4cccc(F)c4)[nH]n3)ncnc2c1 [AZD2811] (first compound max 1 µM, 7x7, partner max 1 µM) | 0.896 | 0.0442 | 0.102 | 0.192 | 0.913 | 0.458 | 0.0612 | 0.0991 | 0.16 | 0.438 | 0.931 | 0.844 | 0.232 | 0.163 | 0.214 | 0.339 | 0.559 | 0.776 | 0.207 | -0.0603 |
| Cc1cc2ncnn2cc1Nc1ncc2c(n1)n(C1CCOCC1)c(=O)n2C [AZD7648] + C=CCn1c(=O)c2cnc(Nc3ccc(N4CCN(C)CC4)cc3)nc2n1-c1cccc(C(C)(C)O)n1 [AZD1775] (first compound max 10 µM, partner max 1 µM) | 0.553 | 0.649 | 0.175 | 0.474 | 0.98 | 0.81 | 0.282 | 0.461 | 0.263 | 0.501 | 1 | 0.304 | 0.385 | 0.576 | 0.592 | 0.533 | 0.994 | 0.484 | 0.124 | -0.0515 |
| COc1nnc2ccc(N3CCC(c4ccc(OCCN5CCN(C)C(=O)[C@H]5C)cc4)CC3)nn12 [AZD5153] + CCN(CCO)CCCOc1ccc2c(Nc3cc(CC(=O)Nc4cccc(F)c4)[nH]n3)ncnc2c1 [AZD2811] (first compound max 1 µM, 7x7, partner max 1 µM) | 1 | 0.375 | 0.5 | 0.538 | 0.936 | 0.691 | 0.281 | 0.582 | 0.39 | 0.336 | 0.999 | 0.912 | 0.637 | 0.639 | 0.537 | 0.628 | 1 | 0.907 | 0.74 | -0.0421 |
| CC(=O)c1c(C)c2cnc(Nc3ccc(N4CCNCC4)cn3)nc2n(C2CCCC2)c1=O [Palbociclib] + CC1(C)CCC(CN2CCN(c3ccc(C(=O)NS(=O)(=O)c4ccc(NCC5CCOCC5)c([N+](=O)[O-])c4)c(Oc4cnc5[nH]ccc5c4)c3)CC2)=C(c2ccc(Cl)cc2)C1 [Venetoclax] (first compound max 10 µM, 7x7, partner max 1 µM) | 0.989 | 0.0364 | 0.047 | 0.216 | 0.581 | 0.628 | 0.0792 | 0.242 | 0.1 | 0.105 | 1 | 0.198 | 0.209 | 0.288 | 0.188 | 0.326 | 1 | 0.375 | 0.422 | -0.0437 |
| CC1(C)CCC(CN2CCN(c3ccc(C(=O)NS(=O)(=O)c4ccc(NCC5CCOCC5)c([N+](=O)[O-])c4)c(Oc4cnc5[nH]ccc5c4)c3)CC2)=C(c2ccc(Cl)cc2)C1 [Venetoclax] + CCN(CCO)CCCOc1ccc2c(Nc3cc(CC(=O)Nc4cccc(F)c4)[nH]n3)ncnc2c1 [AZD2811] (first compound max 1 µM, 7x7, partner max 1 µM) | 1 | 0.143 | 0.211 | 0.409 | 0.925 | 0.258 | 0.148 | 0.181 | 0.245 | 0.412 | 0.778 | 0.886 | 0.207 | 0.117 | 0.34 | 0.515 | 0.978 | 0.833 | 0.297 | -0.0295 |
| CN(C)CCCOc1ccc(-c2ccc3ncc4c(c3c2)n(C2CCOCC2)c(=O)n4C)cn1 [AZD0156] + O=C(c1cc(Cc2n[nH]c(=O)c3ccccc23)ccc1F)N1CCN(C(=O)C2CC2)CC1 [Olaparib] (first compound max 3 µM, partner max 3 µM) | 0.675 | 0.217 | 0.392 | 0.37 | 0.621 | 0.473 | 0.0919 | 0.346 | 0.199 | 0.151 | 0.794 | 0.197 | 0.414 | 0.348 | 0.467 | 0.387 | 0.4 | 0.692 | 0.119 | 0.0611 |
